Results as given in PubChem BioAssay AID248 (DTP/NCI, 2004).
Toxic doses and inconclusive results are not listed. No stated cut-off is given here; in the data, active means T/C of 150% or more; inactive means T/C below 125%.

Test system: L1210 leukemia ip in BDF1 mice, survival T/C
Test: NCI In Vivo Anticancer Drug Screen. Data for tumor model L1210 Leukemia (intraperitoneal) in B6D2F1 (BDF1) mice
Settings: endpoint: mean survival time, higher = longer survival
Method in brief: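 In this screen, tumor-bearing mice given compound are compared to those given vehicle, and their survival values are reported as a treated-to-control quotient.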

[1] = dose: 100.0 mg/kg/injection, schedule: Q01DX001 (ip), vehicle: carboxymethylcellulose (CMC)
[2] = dose: 200.0 mg/kg/injection, schedule: Q01DX001 (ip), vehicle: carboxymethylcellulose (CMC)
[3] = dose: 400.0 mg/kg/injection, schedule: Q01DX001 (ip), vehicle: carboxymethylcellulose (CMC)
[4] = dose: 100.0 mg/kg/injection, schedule: Q01DX009 (ip), vehicle: saline
[5] = dose: 100.0 mg/kg/injection, schedule: Q04DX003 (ip), vehicle: saline
[6] = dose: 200.0 mg/kg/injection, schedule: Q04DX003 (ip), vehicle: saline
[7] = dose: 100.0 mg/kg/injection, schedule: Q04DX003 (ip), vehicle: Klucel (hydroxypropylcellulose) (HPC)
[8] = dose: 200.0 mg/kg/injection, schedule: Q04DX003 (ip), vehicle: Klucel (hydroxypropylcellulose) (HPC)
[9] = dose: 200.0 mg/kg/injection, schedule: Q01DX009 (ip), vehicle: saline with Tween-80
[10] = dose: 100.0 mg/kg/injection, schedule: Q04DX002 (ip), vehicle: Klucel (hydroxypropylcellulose) (HPC)
[11] = dose: 200.0 mg/kg/injection, schedule: Q04DX002 (ip), vehicle: Klucel (hydroxypropylcellulose) (HPC)
[12] = dose: 400.0 mg/kg/injection, schedule: Q04DX002 (ip), vehicle: Klucel (hydroxypropylcellulose) (HPC)

Measured: T/C

CN=C(NCCCOC)c1ccc(NC(=O)Nc2ccc(NC(=O)Nc3ccc(C(=NC)NCCCOC)cc3)cc2)cc1
inactive: dose: 1.87 mg/kg/injection, schedule: Q01DX Z (ip), vehicle: carboxymethylcellulose (CMC) 107 % of control | dose: 3.75 mg/kg/injection, schedule: Q01DX Z (ip), vehicle: carboxymethylcellulose (CMC) 96 % of control | dose: 7.5 mg/kg/injection, schedule: Q01DX Z (ip), vehicle: carboxymethylcellulose (CMC) 104 % of control | dose: 15.0 mg/kg/injection, schedule: Q01DX Z (ip), vehicle: carboxymethylcellulose (CMC) 102 % of control

CC1(Cl)C(=O)NN=C1c1ccc([N+](=O)[O-])cc1 (stereo not given)
inactive: [1] 102 % of control | [2] 102 % of control | [3] 105 % of control

O=C1NC(=O)C(=O)C(=O)N1
inactive: dose: 50.0 mg/kg/injection, schedule: Q01DX009 (ip), vehicle: saline 94 % of control | dose: 50.0 mg/kg/injection, schedule: Q04DX003 (ip), vehicle: saline 93 % of control | dose: 100.0 mg/kg/injection, schedule: Q01DX001 (ip), vehicle: saline 94 % of control | [4] 97 % of control | [5] 97 % of control | dose: 200.0 mg/kg/injection, schedule: Q01DX001 (ip), vehicle: saline 108 % of control | dose: 200.0 mg/kg/injection, schedule: Q01DX009 (ip), vehicle: saline 103 % of control | [6] 97 % of control

CCCCCCCCCCCCCCCC(=O)N(CCC#N)CCCCCCCCCN(CCC#N)C(=O)CCCCCCCCCCCCCCC
inactive: [4] 86 % of control | [5] 94 % of control | [6] 87 % of control | dose: 400.0 mg/kg/injection, schedule: Q01DX009 (ip), vehicle: saline 91 % of control | dose: 400.0 mg/kg/injection, schedule: Q04DX003 (ip), vehicle: saline 92 % of control

CS(=O)Cc1cccc2ccccc12 (stereo not given)
inactive: dose: 50.0 mg/kg/injection, schedule: Q04DX003 (ip), vehicle: Klucel (hydroxypropylcellulose) (HPC) 117 % of control | dose: 100.0 mg/kg/injection, schedule: Q01DX001 (ip), vehicle: Klucel (hydroxypropylcellulose) (HPC) 98 % of control | [7] 104 % of control | dose: 200.0 mg/kg/injection, schedule: Q01DX001 (ip), vehicle: Klucel (hydroxypropylcellulose) (HPC) 116 % of control | [8] 96 % of control

CCCC(C)(C)C(=O)Nc1cccc(OC(=O)NC(C)C)c1
inactive: dose: 100.0 mg/kg/injection, schedule: Q01DX009 (ip), vehicle: saline with Tween-80 96 % of control | [9] 86 % of control | dose: 400.0 mg/kg/injection, schedule: Q01DX009 (ip), vehicle: saline with Tween-80 91 % of control

Cc1ccc(-c2c(C)c(-c3ccccc3)c(-c3ccccc3)c(C)c2-c2ccccc2)cc1C
inactive: dose: 100.0 mg/kg/injection, schedule: Q01DX001 (ip), vehicle: saline with Tween-80 104 % of control | dose: 200.0 mg/kg/injection, schedule: Q01DX001 (ip), vehicle: saline with Tween-80 100 % of control | dose: 400.0 mg/kg/injection, schedule: Q01DX001 (ip), vehicle: saline with Tween-80 100 % of control

CC1(C)CC(=O)C(N=Nc2ccccc2)=C(O)C1
inactive: [10] 105 % of control | [11] 108 % of control | [12] 94 % of control

[O-][n+]1ccnc(C(Cl)(Cl)Cl)c1Cl
inactive: dose: 0.78 mg/kg/injection, schedule: Q01DX009 (ip), vehicle: other 90 % of control | dose: 1.56 mg/kg/injection, schedule: Q01DX009 (ip), vehicle: other 107 % of control | dose: 3.12 mg/kg/injection, schedule: Q01DX009 (ip), vehicle: other 86 % of control

CCCCCOc1cc([N+](=O)[O-])c(OCCCCC)cc1N1CCN(C(C)=O)CC1
inactive: dose: 100.0 mg/kg/injection, schedule: Q04DX003 (sc), vehicle: olive oil, sesame oil, peanut oil 100 % of control | dose: 200.0 mg/kg/injection, schedule: Q04DX003 (sc), vehicle: olive oil, sesame oil, peanut oil 96 % of control | dose: 400.0 mg/kg/injection, schedule: Q04DX003 (sc), vehicle: olive oil, sesame oil, peanut oil 105 % of control

Nc1nc(N)c2nc(CNc3ccccc3)cnc2n1
inactive: dose: 20.0 mg/kg/injection, schedule: Q01DX009 (ip), vehicle: Klucel (hydroxypropylcellulose) (HPC) 96 % of control | dose: 40.0 mg/kg/injection, schedule: Q01DX009 (ip), vehicle: Klucel (hydroxypropylcellulose) (HPC) 105 % of control | dose: 80.0 mg/kg/injection, schedule: Q01DX009 (ip), vehicle: Klucel (hydroxypropylcellulose) (HPC) 96 % of control

O=C(Nc1cccc2ccccc12)OCCCl
inactive: [1] 93 % of control | [2] 90 % of control | [3] 95 % of control

Cc1ccnc(-n2c(N)cc(=O)[nH]c2=S)c1
inactive: dose: 100.0 mg/kg/injection, schedule: Q04DX002 (ip), vehicle: saline 102 % of control | dose: 200.0 mg/kg/injection, schedule: Q04DX002 (ip), vehicle: saline 107 % of control | dose: 400.0 mg/kg/injection, schedule: Q04DX002 (ip), vehicle: saline 107 % of control

N#C/C(=C\C=C\C1CCCCC1)C1CCC([N+](=O)[O-])CC1 (stereo not given)
inactive: dose: 100.0 mg/kg/injection, schedule: Q04DX002 (ip), vehicle: saline with Tween-80 105 % of control | dose: 200.0 mg/kg/injection, schedule: Q04DX002 (ip), vehicle: saline with Tween-80 94 % of control | dose: 400.0 mg/kg/injection, schedule: Q04DX002 (ip), vehicle: saline with Tween-80 91 % of control

O=C(O)C(Cl)C(Cl)c1ccccc1 (stereo not given)
inactive: dose: 75.0 mg/kg/injection, schedule: Q01DX001 (ip), vehicle: saline 98 % of control | dose: 150.0 mg/kg/injection, schedule: Q01DX001 (ip), vehicle: saline 98 % of control | dose: 300.0 mg/kg/injection, schedule: Q01DX001 (ip), vehicle: saline 101 % of control

C=Cc1ccc(N)cc1
inactive: dose: 50.0 mg/kg/injection, schedule: Q01DX009 (ip), vehicle: saline with Tween-80 90 % of control | dose: 100.0 mg/kg/injection, schedule: Q04DX003 (ip), vehicle: saline with Tween-80 87 % of control | [9] 93 % of control | dose: 200.0 mg/kg/injection, schedule: Q04DX003 (ip), vehicle: saline with Tween-80 90 % of control

COc1c2c(cc3c(C)cc(=O)n(C)c13)c(C)cc(=O)n2C
inactive: [7] 99 % of control | [8] 92 % of control | dose: 400.0 mg/kg/injection, schedule: Q04DX003 (ip), vehicle: Klucel (hydroxypropylcellulose) (HPC) 101 % of control

OC1(C2(O)CCC2)CCC1
inactive: dose: 50.0 mg/kg/injection, schedule: Q01DX001 (ip), vehicle: carboxymethylcellulose (CMC) 98 % of control | [1] 95 % of control | [2] 95 % of control | [3] 101 % of control

COc1ccc(C(=O)N/N=C/c2ccc(NC(C)=O)cc2)cc1
inactive: [10] 100 % of control | [11] 96 % of control | [12] 115 % of control

Cc1ccc(Oc2ccc([N+](=O)[O-])cc2[N+](=O)[O-])cc1C
inactive: dose: 222.0 mg/kg/injection, schedule: Q01DX Z (ip), vehicle: methylcellulose (MC) 90 % of control | dose: 333.0 mg/kg/injection, schedule: Q01DX Z (ip), vehicle: methylcellulose (MC) 92 % of control | dose: 500.0 mg/kg/injection, schedule: Q01DX Z (ip), vehicle: methylcellulose (MC) 92 % of control

CCCCCCCCCCCCCCCCCC[N+](C)=C1SCCS1
inactive: dose: 1.56 mg/kg/injection, schedule: Q01DX009 (ip), vehicle: Klucel (hydroxypropylcellulose) (HPC) 94 % of control | dose: 3.13 mg/kg/injection, schedule: Q01DX009 (ip), vehicle: Klucel (hydroxypropylcellulose) (HPC) 105 % of control | dose: 6.25 mg/kg/injection, schedule: Q01DX009 (ip), vehicle: Klucel (hydroxypropylcellulose) (HPC) 105 % of control
